Data on one substance can be found in US20240327756A1, “METAL COMPLEXES, AND D[…] CONTAINING SAME” (HENKEL AG & CO. KGAA, priority 2021, published 2024).

The assay addresses bovine serum albumin (BSA) (Bos taurus, UniProt P02769). As to conditions: BSA 0.02 mM, complex 2 mM, 60° C., pH 9, 24 h incubation; reference without complex = 1.0.

Chain of bovine serum albumin (BSA) (P02769 25-607): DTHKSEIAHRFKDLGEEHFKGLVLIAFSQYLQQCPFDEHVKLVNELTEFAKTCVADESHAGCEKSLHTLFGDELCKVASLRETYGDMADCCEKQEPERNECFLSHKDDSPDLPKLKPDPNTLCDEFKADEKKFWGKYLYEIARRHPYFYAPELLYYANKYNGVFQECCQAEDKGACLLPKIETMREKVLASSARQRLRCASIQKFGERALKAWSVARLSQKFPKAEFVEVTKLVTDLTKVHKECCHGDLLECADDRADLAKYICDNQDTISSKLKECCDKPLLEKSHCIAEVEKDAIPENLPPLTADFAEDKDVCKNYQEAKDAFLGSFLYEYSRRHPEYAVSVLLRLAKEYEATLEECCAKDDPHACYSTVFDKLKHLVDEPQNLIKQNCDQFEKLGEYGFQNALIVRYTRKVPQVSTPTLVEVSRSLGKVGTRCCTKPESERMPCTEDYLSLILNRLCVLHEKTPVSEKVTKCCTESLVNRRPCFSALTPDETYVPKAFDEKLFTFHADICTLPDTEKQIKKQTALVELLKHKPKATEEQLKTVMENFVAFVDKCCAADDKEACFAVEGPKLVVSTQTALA
Description: The hydrolysis of protein dirt was investigated using degradation of bovine serum albumin (BSA). […] The incubated material was then examined with the known method of SDS-PAGE with regard to the intensity of the band to be assigned to BSA. BSA incubated under the same conditions without the addition of complexes served as reference. The intensity values given in the following table are relative values based on the intensity of the band of the reference at t=24 h.

For the substance “Sc (III) Complex of 1,7-dioxa-4,10-diazacyclododecane-4,10-di(methyl(phenol)) [complex P1]”, the “Intensity (of the SDS-PAGE band assigned to BSA, relative to the reference band at t=24 h)” value came to 0.84.
